What was measured:
Type in all cases: in vivo
Setaria viridis = assay: greenhouse test, post-emergence treatment, SETVI
From the text: (§1) The culture containers used were plastic flowerpots containing loamy sand with approximately 3.0% of humus as the substrate. The seeds of the test plants were sown separately for each species.
(§2) For the post-emergence treatment, the test plants were first grown to a height of 3 to 15 cm, depending on the plant habit, and only then treated with the active ingredients which had been suspended or emulsified in water. For this purpose, the test plants were either sown directly and grown in the same containers, or they were first grown separately as seedlings and transplanted into the test containers a few days prior to treatment.
(§3) Depending on the species, the plants were kept at 10-25° C. or 20-35° C., respectively.
(§4) The test period extended over 2 to 4 weeks. During this time, the plants were tended, and their response to the individual treatments was evaluated.
(§5) Evaluation was carried out using a scale from 0 to 100. 100 means no emergence of the plants, or complete destruction of at least the aerial moieties, and 0 means no damage, or normal course of growth. A good herbicidal activity is given at values of at least 70 and a very good herbicidal activity is given at values of at least 85.
(§6) The plants used in the greenhouse experiments were of the following species: […]

Echinocloa crus-galli [1] = assay: greenhouse test, post-emergence treatment, ECHCG; settings: post-emergence
How it was run: (§7)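 Loamy sand, ~3.0% humus; plants 3–15 cm at treatment; compound suspended/emulsified in water; 10–25 or 20–35 °C per species; 2–4 wk; score 0–100 phytotoxicity.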

Alopecurus myosuroides = assay: greenhouse test, post-emergence treatment, ALOMY; settings: post-emergence
How it was run: as §7

Apera spica-venti = assay: greenhouse test, pre-emergence treatment, APESV
How it was run: (§8)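 Pre-emergence greenhouse test: seeds sown per species in loamy sand (about 3.0% humus), aqueous suspension or emulsion of active sprayed right after sowing, pots covered until rooting. Kept at 10-25 °C or 20-35 °C for 2 to 4 weeks; damage scored 0 (none) to 100 (no emergence/complete destruction).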

Echinocloa crus-galli [2] = assay: greenhouse test, pre-emergence treatment, ECHCG
How it was run: as §8

Avena fatua = assay: greenhouse test, post-emergence treatment, AVEFA
How it was run: as §7

Amaranthus retroflexus = assay: greenhouse test, post-emergence treatment, AMARE; settings: 1000 g/ha
From the text: as §1, §2, §3, §4, §5, §6

With `O=P(O)(O)C(Cc1nc(C2CC2)ncc1-c1ccccc1Cl)P(=O)(O)O` [Ex. 90] the herbicidal activity (Setaria viridis; 2000 g/ha) was “very good (a very good herbicidal activity is given at values of at least 85)”.
In the case of `Clc1ccccc1-c1cnc(C2CC2)nc1C=C1CCOCC1` [Ex. 92], the herbicidal activity (Echinocloa crus-galli [1]; 2000 g/ha) is reported as “good (A good herbicidal activity is given at values of at least 70)”, the herbicidal activity (Alopecurus myosuroides; 2000 g/ha) is reported as “good (A good herbicidal activity is given at values of at least 70)” and the herbicidal activity (Setaria viridis; 2000 g/ha) is reported as “good (A good herbicidal activity is given at values of at least 70)”.
For `CC(C)(C)CCc1nc(C2CC2)ncc1-c1ccccc1Cl` [Ex. 103], the herbicidal activity (Setaria viridis; 2000 g/ha) was “very good (a very good herbicidal activity is given at values of at least 85)”.
With `CCOP(=O)(OCC)C(Cc1nc(C2CC2)ncc1-c1ccccc1Cl)P(=O)(OCC)OCC` [Ex. 88] the herbicidal activity (Setaria viridis; 2000 g/ha) was “very good (a very good herbicidal activity is given at values of at least 85)”.
For `Ic1ccccc1-c1cnc(C2CCC2)nc1-c1ccco1` [Ex. 78], the herbicidal activity (Setaria viridis; 1000 g/ha) was “very good (a very good herbicidal activity is given at values of at least 85)”.
In the case of `Clc1ccccc1-c1cnc(C2CC2)nc1CC1CCOCC1` [Ex. 96], the herbicidal activity (Setaria viridis; 1000 g/ha) is reported as “very good (a very good herbicidal activity is given at values of at least 85)”.
`Clc1ccccc1-c1cnc(C2CC2)nc1-c1ccc(Br)o1` [Ex. 31] was tested, and the herbicidal activity (Apera spica-venti; 2000 g/ha) was “very good (a very good herbicidal activity is given at values of at least 85)”, the herbicidal activity (Echinocloa crus-galli [2]; 2000 g/ha) was “very good (a very good herbicidal activity is given at values of at least 85)” and the herbicidal activity (Alopecurus myosuroides; 2000 g/ha) was “very good (a very good herbicidal activity is given at values of at least 85)”. The herbicidal activity (Setaria viridis; 2000 g/ha) was “very good (a very good herbicidal activity is given at values of at least 85)”.
For `Cc1nc(C)c(-c2nc(C3CC3)ncc2-c2cc(Br)ccc2Br)o1` [Ex. 292], the herbicidal activity (Apera spica-venti; 1000 g/ha) was “very good (a very good herbicidal activity is given at values of at least 85)”, the herbicidal activity (Echinocloa crus-galli [2]; 1000 g/ha) was “very good (a very good herbicidal activity is given at values of at least 85)” and the herbicidal activity (Echinocloa crus-galli [1]; 1000 g/ha) was “very good (a very good herbicidal activity is given at values of at least 85)”. For the same compound, the herbicidal activity (Alopecurus myosuroides; 1000 g/ha) was “good (A good herbicidal activity is given at values of at least 70)” and the herbicidal activity (Setaria viridis; 1000 g/ha) was “very good (a very good herbicidal activity is given at values of at least 85)”.
In the case of `Cc1ccoc1-c1nc(C2CC2)ncc1-c1ccccc1Cl` [Ex. 30], the herbicidal activity (Apera spica-venti; 2000 g/ha) is reported as “very good (a very good herbicidal activity is given at values of at least 85)”, the herbicidal activity (Echinocloa crus-galli [2]; 2000 g/ha) is reported as “very good (a very good herbicidal activity is given at values of at least 85)” and the herbicidal activity (Alopecurus myosuroides; 2000 g/ha) is reported as “very good (a very good herbicidal activity is given at values of at least 85)”. For the same compound, the herbicidal activity (Setaria viridis; 2000 g/ha) was “very good (a very good herbicidal activity is given at values of at least 85)”.
For `CC(Br)c1ncc(-c2ccccc2Cl)c(CBr)n1` (stereo not shown) [Ex. 51], the herbicidal activity (Setaria viridis; 1000 g/ha) was “very good (a very good herbicidal activity is given at values of at least 85)”.
In the case of `Clc1ccccc1-c1cnc(C2CC2)nc1-c1ccco1` [Ex. 24], the herbicidal activity (Apera spica-venti; 2000 g/ha) is reported as “very good (a very good herbicidal activity is given at values of at least 85)”, the herbicidal activity (Echinocloa crus-galli [2]; 2000 g/ha) is reported as “very good (a very good herbicidal activity is given at values of at least 85)” and the herbicidal activity (Echinocloa crus-galli [1]; 2000 g/ha) is reported as “very good (a very good herbicidal activity is given at values of at least 85)”. The herbicidal activity (Setaria viridis; 2000 g/ha) was “very good (a very good herbicidal activity is given at values of at least 85)”.
For `COC(=O)COC(C)c1nc(C2CC2)ncc1-c1ccccc1Cl` (stereo not shown) [Ex. 141], the herbicidal activity (Setaria viridis; 1000 g/ha) was “good (A good herbicidal activity is given at values of at least 70)”.
For `CC(O)c1nc(C2CC2)ncc1-c1ccccc1Cl` (stereo not shown) [Ex. 49], the herbicidal activity (Apera spica-venti; 1000 g/ha) was “good (A good herbicidal activity is given at values of at least 70)”, the herbicidal activity (Echinocloa crus-galli [2]; 1000 g/ha) was “good (A good herbicidal activity is given at values of at least 70)” and the herbicidal activity (Echinocloa crus-galli [1]; 1000 g/ha) was “good (A good herbicidal activity is given at values of at least 70)”. For the same compound, the herbicidal activity (Alopecurus myosuroides; 1000 g/ha) was “very good (a very good herbicidal activity is given at values of at least 85)” and the herbicidal activity (Setaria viridis; 1000 g/ha) was “very good (a very good herbicidal activity is given at values of at least 85)”.
For `CCc1nc(C)c(-c2nc(C3CC3)ncc2-c2ccccc2Cl)o1` [Ex. 272], the herbicidal activity (Apera spica-venti; 2000 g/ha) was “very good (a very good herbicidal activity is given at values of at least 85)”, the herbicidal activity (Echinocloa crus-galli [2]; 2000 g/ha) was “very good (a very good herbicidal activity is given at values of at least 85)” and the herbicidal activity (Alopecurus myosuroides; 2000 g/ha) was “very good (a very good herbicidal activity is given at values of at least 85)”. For the same compound, the herbicidal activity (Avena fatua; 2000 g/ha) was “very good (a very good herbicidal activity is given at values of at least 85)” and the herbicidal activity (Setaria viridis; 2000 g/ha) was “very good (a very good herbicidal activity is given at values of at least 85)”.
`CC(O)c1nc(C2CC2)ncc1-c1ccccc1Br` (stereo not shown) [Ex. 114] was tested, and the herbicidal activity (Setaria viridis; 500 g/ha) was “very good (a very good herbicidal activity is given at values of at least 85)”.
For `Clc1ccc(-c2nc(C3CC3)ncc2-c2ccccc2Cl)s1` [Ex. 119], the herbicidal activity (Alopecurus myosuroides; 1000 g/ha) was “very good (a very good herbicidal activity is given at values of at least 85)” and the herbicidal activity (Setaria viridis; 1000 g/ha) was “good (A good herbicidal activity is given at values of at least 70)”.
In the case of `Cc1occc1-c1nc(C2CC2)ncc1-c1ccccc1Cl` [Ex. 58], the herbicidal activity (Avena fatua; 1000 g/ha) is reported as “good (A good herbicidal activity is given at values of at least 70)” and the herbicidal activity (Setaria viridis; 1000 g/ha) is reported as “very good (a very good herbicidal activity is given at values of at least 85)”.
In the case of `Ic1ccccc1-c1cnc(C2CC2)nc1-c1ccco1` [Ex. 76], the herbicidal activity (Alopecurus myosuroides; 1000 g/ha) is reported as “good (A good herbicidal activity is given at values of at least 70)” and the herbicidal activity (Setaria viridis; 1000 g/ha) is reported as “very good (a very good herbicidal activity is given at values of at least 85)”.
With `CC(C)=Cc1nc(C2CC2)ncc1-c1ccccc1Cl` [Ex. 70] the herbicidal activity (Alopecurus myosuroides; 2000 g/ha) was “very good (a very good herbicidal activity is given at values of at least 85)” and the herbicidal activity (Setaria viridis; 2000 g/ha) was “very good (a very good herbicidal activity is given at values of at least 85)”.
`O=[N+]([O-])c1ccccc1-c1cnc(C2CC2)nc1-c1cccs1` [Ex. 38] was tested, and the herbicidal activity (Setaria viridis; 1000 g/ha) was “good (A good herbicidal activity is given at values of at least 70)”.
With `CCc1ocnc1-c1nc(C2CC2)ncc1-c1ccccc1Cl` [Ex. 282] the herbicidal activity (Apera spica-venti; 2000 g/ha) was “very good (a very good herbicidal activity is given at values of at least 85)”, the herbicidal activity (Echinocloa crus-galli [2]; 2000 g/ha) was “very good (a very good herbicidal activity is given at values of at least 85)” and the herbicidal activity (Alopecurus myosuroides; 2000 g/ha) was “very good (a very good herbicidal activity is given at values of at least 85)”. For the same compound, the herbicidal activity (Avena fatua; 2000 g/ha) was “very good (a very good herbicidal activity is given at values of at least 85)” and the herbicidal activity (Setaria viridis; 2000 g/ha) was “very good (a very good herbicidal activity is given at values of at least 85)”.
`Cc1cc(-c2nc(C3CC3)ncc2-c2ccccc2Br)co1` [Ex. 271] was tested, and the herbicidal activity (Echinocloa crus-galli [1]; 1000 g/ha) was “good (A good herbicidal activity is given at values of at least 70)” and the herbicidal activity (Setaria viridis; 1000 g/ha) was “very good (a very good herbicidal activity is given at values of at least 85)”.
With `Fc1cccc(-c2cnc(C3CC3)nc2-c2ccco2)c1Cl` [Ex. 33] the herbicidal activity (Setaria viridis; 2000 g/ha) was “good (A good herbicidal activity is given at values of at least 70)”.
For `Cc1nc(C(C)Br)ncc1-c1ccccc1Cl` (stereo not shown) [Ex. 52], the herbicidal activity (Setaria viridis; 1000 g/ha) was “very good (a very good herbicidal activity is given at values of at least 85)”.
`CCc1ncc(-c2ccccc2Br)c(-c2ccco2)n1` [Ex. 62] was tested, and the herbicidal activity (Setaria viridis; 500 g/ha) was “very good (a very good herbicidal activity is given at values of at least 85)”.
With `OC1(Cc2nc(C3CC3)ncc2-c2ccccc2Cl)CCCC1` [Ex. 74] the herbicidal activity (Setaria viridis; 2000 g/ha) was “very good (a very good herbicidal activity is given at values of at least 85)”.
`Cc1nc(-c2nc(C3CC3)ncc2-c2ccccc2Cl)c(C)o1` [Ex. 277] was tested, and the herbicidal activity (Apera spica-venti; 1000 g/ha) was “very good (a very good herbicidal activity is given at values of at least 85)”, the herbicidal activity (Echinocloa crus-galli [2]; 1000 g/ha) was “very good (a very good herbicidal activity is given at values of at least 85)” and the herbicidal activity (Echinocloa crus-galli [1]; 1000 g/ha) was “very good (a very good herbicidal activity is given at values of at least 85)”. The herbicidal activity (Alopecurus myosuroides; 1000 g/ha) was “very good (a very good herbicidal activity is given at values of at least 85)” and the herbicidal activity (Setaria viridis; 1000 g/ha) was “very good (a very good herbicidal activity is given at values of at least 85)”.
For `OCc1nc(C2CC2)ncc1-c1ccc(F)cc1Cl` [Ex. 15], the herbicidal activity (Amaranthus retroflexus) was “good (A good herbicidal activity is given at values of at least 70)”, the herbicidal activity (Apera spica-venti; 1000 g/ha) was “very good (a very good herbicidal activity is given at values of at least 85)” and the herbicidal activity (Echinocloa crus-galli [2]; 1000 g/ha) was “very good (a very good herbicidal activity is given at values of at least 85)”. For the same compound, the herbicidal activity (Alopecurus myosuroides; 1000 g/ha) was “very good (a very good herbicidal activity is given at values of at least 85)” and the herbicidal activity (Avena fatua; 1000 g/ha) was “very good (a very good herbicidal activity is given at values of at least 85)”.
For `Clc1ccccc1-c1cnc(C2CC2)nc1CC1CCCC1` [Ex. 99], the herbicidal activity (Setaria viridis; 2000 g/ha) was “very good (a very good herbicidal activity is given at values of at least 85)”.
In the case of `Clc1ccccc1-c1cnc(C2CC2)nc1CC1CCC1` [Ex. 98], the herbicidal activity (Setaria viridis; 500 g/ha) is reported as “good (A good herbicidal activity is given at values of at least 70)”.
